Data on six molecules can be found in patent US5554789A, “Arylpropionic derivative, a process for the preparation and the use thereof as an analgesic agent” (Laboratorios Menarini S.A., priority 1992, dated 1996).

For series [1] the following is noted: cited from earlier work.
The nature of series [2]: Dissolution rate in water. The settings on record: compared with compound (I). Format: physicochemical.
Series [3] in a line: Gastrolesive effect in animals.
A short description of a further series: pH in aqueous solution. It is filed as physicochemical.
Another series is described as follows: Hygroscopicity. Format: physicochemical.
The nature of series [4]: Toxicity (general statement). The conditions noted are these: compared with the other derivatives.
Series [5] in a line: Analgesic action (general statements). Format: in vivo.
Series [6] in a line: Plasmatic levels of the (+)-(S) enantiomer in humans. The settings on record: vs (+)-(S)-ketoprofen free acid or double dose of racemic ketoprofen free acid.
In another series the test system is Swiss male mice. As to the kind of experiment: Phenylbenzoquinone writhing test (analgesic activity). Format: in vivo.
For series [7] the following is noted: background; cited from earlier work.

Counter-ions that a name gives are not always drawn. Like-named read-outs stand apart in the source and are kept apart here.

On to `C[C@H](C(=O)O)c1cccc(C(=O)c2ccccc2)c1` [(+)-(S)-ketoprofen, (+)-(S)-2-(3-benzoylphenyl)propionic acid], for which the analgesic action result in series [1] (vs the racemic, administered doses being equal) was “faster acting and more potent analgesic than the racemic”.
Consider `C[C@H](C(=O)O)c1cccc(C(=O)c2ccccc2)c1` [L-lysine salt], for which the dissolution rate entry in series [2] is “significantly lower”.
With `C[C@H](C(=O)O)c1cccc(C(=O)c2ccccc2)c1` [I, (+)-(S)-2-(3-benzoylphenyl)propionic acid tromethamine salt], the gastrolesive effect entry in series [3] (animals, vs (+)-(S)-, (-)-(R)- and racemic ketoprofen) is reported as “much less gastrolesive”; in [3] (vs corresponding free acid or racemic ketoprofen) it was “markedly less gastrolesive than the corresponding free acid or the racemic ketoprofen”. Further, the “pH in aqueous solution” value in the series “pH in aqueous solution” was “physiologically compatible pH in aqueous solution”. The hygroscopicity result in “Hygroscopicity” is “very low hygroscopicity”. The toxicity result in series [4] is reported as “lower toxicity”. Moreover, the “analgesic action (onset, response, duration)” value in series [5] (vs racemic ketoprofen) is “faster onset of analgesic action, an enhanced analgesic response and a longer duration than racemic ketoprofen”. The “analgesic action and response” value in series [5] (vs racemic ketoprofen tromethamine salt) is “faster action and enhanced analgesic response than the racemic ketoprofen tromethamine salt”. Besides, the “plasmatic levels of the active (+)-(S) enantiomer” value in series [6] is on record as “higher plasmatic levels of the active (+)-(S) enantiomer in a far shorter time”. Further, the “analgesic effectiveness compared with racemic ketoprofen” value in the series with Swiss male mice (phenylbenzoquinone writhing test, intravenous and oral) is “same analgesic effectiveness as a racemic ketoprofen double dose”.
On to `CC(C(=O)O)c1cccc(C(=O)c2ccccc2)c1` (racemic) [(R,S)-ketoprofen tromethamine salt], for which the “% Inhibition (analgesic effect, phenylbenzoquinone test)” value in the series with Swiss male mice (intravenously, 0.30 mg/kg (amount of ketoprofen injected)) was found to be 62.9 ± 11.7%.
Turning to `CC(C(=O)O)c1cccc(C(=O)c2ccccc2)c1` (stereo not drawn) [sodium salt], the hygroscopicity entry in series [7] is “high hygroscopicity”.
As for `CC(C(=O)O)c1cccc(C(=O)c2ccccc2)c1` (racemic) [(R,S)-ketoprofen, 2-(3-Benzoylphenyl)propionic acid], in [1] (background), the “analgesic and antipyretic action” value was “potent analgesic and antipyretic action”. For the same molecule, the “% Inhibition (analgesic effect, phenylbenzoquinone test)” value in the series on Swiss male mice (orally, 30 minutes prior to phenylbenzoquinone, 0.30 mg/kg) came to 50.0 ± 7.8%.
